Results published in US8871767B2, “2-arylimidazo[1,2-B]pyridazine, 2-phenylimidazo[1,2-A]pyridine, and 2-phenylimidazo[1,2-A]pyrazine derivatives” (Hengrui (USA) Ltd., priority 2010, dated 2014).
Like-named read-outs stand apart in the source and are kept apart here.

Assays:
[1] = system: Hedgehog pathway activation on 10T1/2/Smo#3 cells (C3H10T1/2 cells transfected with human Smoothened receptor); assay: Hedgehog pathway activation on 10T1/2/Smo#3 cells measured by ALP activity; assay type: cell-based
Summary of the method: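 C3H10T1/2 cells stably expressing human Smoothened were activated with hShh-conditioned medium (10-20%) or 500 nM SAG, with test compounds present. Pathway block read as inhibited ALP activity (4-methylumbelliferyl phosphate fluorescence); viability checked by CellTiter-Blue. IC50 values reported.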

[2] = system: Hedgehog pathway activation (GLi-luciferase reporter) in Shh Light II reporter cells; assay: Hedgehog pathway activation on Shh Light II reporter cells measured by luciferase activity; assay type: cell-based
Summary of the method: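 Shh Light II reporter cells carrying a hedgehog-responsive GLi-luciferase reporter were stimulated either with 500 nM SAG, a direct Smoothened agonist, or with conditioned media containing human Sonic Hedgehog (hShh). Test compounds were evaluated for blocking this pathway activation, quantified by luciferase activity. Cell viability was monitored in parallel with the Celltiter-Blue® assay.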

[3] = Mus musculus, C3H 10T1/2, 10T1/2/Smo#3 cells, measured by ALP activity, read-out: ALP (IC50, inhibition of Hedgehog pathway activation)
[4] = Mus musculus, Shh Light II, hShh activation, read-out: Shh (IC50, inhibition of Hedgehog pathway activation)
[5] = Mus musculus, C3H 10T1/2, 10T1/2/Smo#3 cells, hShh activation, ALP activity, read-out: 10T1/2/Smo#3 ALP activity (hShh Activation)
[6] = Mus musculus, Shh Light II, SAG activation (500 nM SAG), read-out: Shh Light II luciferase activity (SAG activation)
[7] = Mus musculus, Shh Light II, hShh activation, read-out: Shh Light II luciferase activity (hShh activation)
[8] = hShh activation, read-out: Shh (IC50, inhibition of Hedgehog pathway activation)

Row | IC50 [1, 3] [nM] | IC50 [2, 4] [nM] | IC50 [1, 5] [nM] | IC50 [2, 6] [nM] | IC50 [2, 7] [nM] | IC50 [2, 8] [nM] | IC50 ([1]; 10T1/2/Smo#3 cells, measured by ALP activity, read-out: ALP (IC50, inhibition of Hedgehog pathway activation)) [nM] | Compound
1 | 326 | 213 | – | – | – | – | – | Cc1ccc(-c2nc3ccc(-c4ccccc4F)nn3c2C)cc1NC(=O)C(C)(C)C [Example 312, N-(5-(6-(2-fluorophenyl)-3-methylimidazo[1,2-b]pyridazin-2-yl)-2-methylphenyl)pivalamide]
2 | 636 | 826 | 300 to 3000 | 300 to 3000 | 300 to 3000 | – | – | Cc1ccc(-c2nc3ccc(N4CCC(O)CC4)nn3c2C)cc1NC(=O)C(C)(C)C [Example 313, N-(5-(6-(4-hydroxypiperidin-1-yl)-3-methylimidazo[1,2-b]pyridazin-2-yl)-2-methylphenyl)pivalamide]
3 | – | 323 | 300 to 3000 | 300 to 3000 | < 300 | – | – | C#Cc1ccc(-c2cn3nc(-c4ccccc4F)ccc3n2)cc1NC(=O)C(C)(C)C [Example 321, N-(2-ethynyl-5-(6-(2-fluorophenyl)imidazo[1,2-b]pyridazin-2-yl)phenyl)pivalamide]
4 | 213 | 278 | – | – | – | – | – | CC(C)(C)C(=O)Nc1cc(-c2cn3nc(-c4cccnc4Cl)ccc3n2)ccc1C(F)(F)F [Example 334, N-(5-(6-(2-chloropyridin-3-yl)imidazo[1,2-b]pyridazin-2-yl)-2-(trifluoromethyl)phenyl)pivalamide]
5 | 194 | – | – | – | – | 308 | – | CC(C)(C)C(=O)Nc1cc(-c2cn3nc(N4CCC(O)C4)ccc3n2)ccc1C(F)(F)F (stereo not shown) [Example 337, N-(5-(6-(3-hydroxypyrrolidin-1-yl)imidazo[1,2-b]pyridazin-2-yl)-2-(trifluoromethyl)phenyl)pivalamide]
6 | 114 | 115 | – | – | – | – | – | CC(C)(C)C(=O)Nc1cc(-c2cn3nc(N4CC[C@H](O)C4)ccc3n2)ccc1C(F)(F)F [Example 340, (S)-N-(5-(6-(3-hydroxypyrrolidin-1-yl)imidazo[1,2-b]pyridazin-2-yl)-2-(trifluoromethyl)phenyl)pivalamide]
7 | 109 | 123 | – | – | – | – | – | CC(C)(C)C(=O)Nc1cc(-c2cn3nc(N4CC[C@@H](O)C4)ccc3n2)ccc1C(F)(F)F [Example 341, (R)-N-(5-(6-(3-hydroxypyrrolidin-1-yl)imidazo[1,2-b]pyridazin-2-yl)-2-(trifluoromethyl)phenyl)pivalamide]
8 | 23 | 44 | < 300 | < 300 | < 300 | – | – | Cc1ccc(-c2cn3nc(N4CC[C@H](O)C4)ccc3n2)cc1NC(=O)C(C)(C)C [Example 346, (S)-N-(5-(6-(3-hydroxypyrrolidin-1-yl)imidazo[1,2-b]pyridazin-2-yl)-2-methylphenyl)pivalamide]
9 | 22 | 46 | – | – | – | – | – | Cc1ccc(-c2cn3nc(N4CC[C@@H](O)C4)ccc3n2)cc1NC(=O)C(C)(C)C [Example 347, (R)-N-(5-(6-(3-hydroxypyrrolidin-1-yl)imidazo[1,2-b]pyridazin-2-yl)-2-methylphenyl)pivalamide]
10 | 9 | 45 | – | – | – | – | – | CNC1CCN(c2ccc3nc(-c4ccc(C(F)(F)F)c(NC(=O)C(C)(C)C)c4)cn3n2)C1 (stereo not shown) [Example 349, N-(5-(6-(3-(methylamino)pyrrolidin-1-yl)imidazo[1,2-b]pyridazin-2-yl)-2-(trifluoromethyl)phenyl)pivalamide]
11 | 28 | 65 | – | – | – | – | – | CN(C)C1CCN(c2ccc3nc(-c4ccc(C(F)(F)F)c(NC(=O)C(C)(C)C)c4)cn3n2)C1 (stereo not shown) [Example 350, N-(5-(6-(3-(dimethylamino)pyrrolidin-1-yl)imidazo[1,2-b]pyridazin-2-yl)-2-(trifluoromethyl)phenyl)pivalamide]
12 | 21 | 38 | – | – | – | – | – | CC(=O)NC1CCN(c2ccc3nc(-c4ccc(C(F)(F)F)c(NC(=O)C(C)(C)C)c4)cn3n2)C1 (stereo not shown) [Example 351, N-(5-(6-(3-acetamidopyrrolidin-1-yl)imidazo[1,2-b]pyridazin-2-yl)-2-(trifluoromethyl)phenyl)pivalamide]
13 | 14 | 11 | < 300 | < 300 | < 300 | – | – | CCc1ccc(-c2cn3nc(-c4cccnc4C(F)(F)F)ccc3n2)cc1NC(=O)C(C)(C)C [Example 352, N-(2-ethyl-5-(6-(2-(trifluoromethyl)pyridin-3-yl)imidazo[1,2-b]pyridazin-2-yl)phenyl)pivalamide]
14 | 56 | 74 | – | – | – | – | – | Cc1ccc(-c2nc3ccc(-c4cccnc4C(F)(F)F)nn3c2C)cc1NC(=O)C(C)(C)C [Example 353, N-(2-methyl-5-(3-methyl-6-(2-(trifluoromethyl)pyridin-3-yl)imidazo[1,2-b]pyridazin-2-yl)phenyl)pivalamide]
15 | 554 | 332 | – | – | – | – | – | CC(C)(C)C(=O)Nc1cc(-c2cn3nc(N4CCCC(CO)C4)ccc3n2)ccc1C(F)(F)F (stereo not shown) [Example 354, N-(5-(6-(3-(hydroxymethyl)piperidin-1-yl)imidazo[1,2-b]pyridazin-2-yl)-2-(trifluoromethyl)phenyl)pivalamide]
16 | 240 | 142 | – | – | – | – | – | CC(C)(C)C(=O)Nc1cc(-c2cn3nc(N4CCSCC4)ccc3n2)ccc1C(F)(F)F [Example 355, N-(5-(6-thiomorpholinoimidazo[1,2-b]pyridazin-2-yl)-2-(trifluoromethyl)phenyl)pivalamide]
17 | 514 | 309 | – | – | – | – | – | CC(C)(C)C(=O)Nc1cc(-c2cn3nc(N4CCCC(C(F)(F)F)C4)ccc3n2)ccc1C(F)(F)F (stereo not shown) [Example 356, N-(2-(trifluoromethyl)-5-(6-(3-(trifluoromethyl)piperidin-1-yl)imidazo[1,2-b]pyridazin-2-yl)phenyl)pivalamide]
18 | 445 | 151 | – | – | – | – | – | CC(C)(C)C(=O)Nc1cc(-c2cn3nc(N4CCC[C@@H](O)C4)ccc3n2)ccc1C(F)(F)F [Example 357, (R)-N-(5-(6-(3-hydroxypiperidin-1-yl)imidazo[1,2-b]pyridazin-2-yl)-2-(trifluoromethyl)phenyl)pivalamide]
19 | 387 | 225 | – | – | – | – | – | CC(C)(C)C(=O)Nc1cc(-c2cn3nc(N4CCC[C@H](O)C4)ccc3n2)ccc1C(F)(F)F [Example 358, (S)-N-(5-(6-(3-hydroxypiperidin-1-yl)imidazo[1,2-b]pyridazin-2-yl)-2-(trifluoromethyl)phenyl)pivalamide]
20 | 1900 | 1850 | – | – | – | – | – | CC(C)(C)C(=O)Nc1cc(-c2cn3nc(N(CCO)CCO)ccc3n2)ccc1C(F)(F)F [Example 359, N-(5-(6-(bis(2-hydroxyethyl)amino)imidazo[1,2-b]pyridazin-2-yl)-2-(trifluoromethyl)phenyl)pivalamide]
21 | – | – | – | – | – | 26 | 32 | CNC1CCN(c2ccc3nc(-c4ccc(C)c(NC(=O)C(C)(C)C)c4)cn3n2)C1 (stereo not shown) [Example 360, N-(2-methyl-5-(6-(3-(methylamino)pyrrolidin-1-yl)imidazo[1,2-b]pyridazin-2-yl)phenyl)pivalamide]
22 | 110 | 84 | – | – | – | – | – | Cc1ccc(-c2cn3nc(N4CCC(N(C)C)C4)ccc3n2)cc1NC(=O)C(C)(C)C (stereo not shown) [Example 361, N-(5-(6-(3-(dimethylamino)pyrrolidin-1-yl)imidazo[1,2-b]pyridazin-2-yl)-2-methylphenyl)pivalamide]
23 | 155 | 104 | – | – | – | – | – | CC(=O)NC1CCN(c2ccc3nc(-c4ccc(C)c(NC(=O)C(C)(C)C)c4)cn3n2)C1 (stereo not shown) [Example 362, N-(5-(6-(3-acetamidopyrrolidin-1-yl)imidazo[1,2-b]pyridazin-2-yl)-2-methylphenyl)pivalamide]
24 | 1240 | 612 | 300 to 3000 | 300 to 3000 | 300 to 3000 | – | – | CC(=O)NC1CCN(c2ccc3nc(-c4ccc(C)c(NC(=O)C(C)(C)C)c4)c(C)n3n2)C1 (stereo not shown) [Example 363, N-(5-(6-(3-acetamidopyrrolidin-1-yl)-3-methylimidazo[1,2-b]pyridazin-2-yl)-2-methylphenyl)pivalamide]
25 | 1 | 3 | – | – | – | – | – | Cc1ccc(-c2cn3nc(-c4cnccc4C(F)(F)F)ccc3n2)cc1NC(=O)C(C)(C)C [Example 364, N-(2-methyl-5-(6-(4-(trifluoromethyl)pyridin-3-yl)imidazo[1,2-b]pyridazin-2-yl)phenyl)pivalamide]
26 | 360 | 124 | – | – | – | – | – | Cc1ccc(-c2cn3nc(-c4ccnc(F)c4)ccc3n2)cc1NC(=O)C(C)(C)C [Example 365, N-(5-(6-(2-fluoropyridin-4-yl)imidazo[1,2-b]pyridazin-2-yl)-2-methylphenyl)pivalamide]
27 | 1100 | 227 | – | – | – | – | – | Cc1ccc(-c2cn3nc(-c4ccc(Cl)cn4)ccc3n2)cc1NC(=O)C(C)(C)C [Example 366, N-(5-(6-(5-chloropyridin-2-yl)imidazo[1,2-b]pyridazin-2-yl)-2-methylphenyl)pivalamide]
28 | 343 | 312 | – | – | – | – | – | CCOC1CCN(c2ccc3nc(-c4ccc(C(F)(F)F)c(NC(=O)C(C)(C)C)c4)cn3n2)CC1 [Example 367, N-(5-(6-(4-ethoxypiperidin-1-yl)imidazo[1,2-b]pyridazin-2-yl)-2-(trifluoromethyl)phenyl)pivalamide]
